From the supplement of paper PMC10307832

What was measured:
Assay in all cases: relative viability (nuclei count vs DMSO), 5 days (fraction); higher = more cells survive
NCI-H358 = test system: NCI-H358
Method in brief: (§1)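 Each reported value is a median over duplicate plates. It expresses relative viability: treated-well nuclei count divided by vehicle-well nuclei count. Lung cancer cell lines in 1536-well plates were dosed by pin tool a day after seeding, alone with one drug or with a fixed anchor-drug dose plus five library-drug doses (not always all listed) in √10 steps, and nuclei were counted after 5 days.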

NCI-H1355 = test system: NCI-H1355
Method in brief: as §1

NCI-H2228 = test system: NCI-H2228
Method in brief: as §1

COR-L23 = test system: COR-L23
Method in brief: as §1

NCI-H1755 = test system: NCI-H1755
Method in brief: as §1

SK-MES-1 = test system: SK-MES-1
Method in brief: as §1

NCI-H1793 = test system: NCI-H1793
Method in brief: as §1

COR-L 105 = test system: COR-L 105
Method in brief: as §1

HOP-62 = test system: HOP-62
Method in brief: as §1

NCI-H1395 = test system: NCI-H1395
Method in brief: as §1

NCI-H2170 = test system: NCI-H2170
Method in brief: as §1

NCI-H1993 = test system: NCI-H1993
Method in brief: as §1

UMC-11 = test system: UMC-11
Method in brief: as §1

NCI-H1734 = test system: NCI-H1734
Method in brief: as §1

NCI-H647 = test system: NCI-H647
Method in brief: as §1

NCI-H1792 = test system: NCI-H1792
Method in brief: as §1

NCI-H838 = test system: NCI-H838
Method in brief: as §1

HCC-15 = test system: HCC-15
Method in brief: as §1

NCI-H2009 = test system: NCI-H2009
Method in brief: as §1

NCI-H2347 = test system: NCI-H2347
Method in brief: as §1

HARA = test system: HARA
Method in brief: as §1

With `COc1cc2nccc(Oc3ccc(NC(=O)Nc4cc(C)on4)c(Cl)c3)c2cc1OC` [Tivozanib] + CS(=O)(=O)N1CCN(Cc2cc3nc(-c4cccc5[nH]ncc45)nc(N4CCOCC4)c3s2)CC1 [Pictilisib] (partner 1 µM) the relative viability (NCI-H358; first compound 0.005 µM) was 0.345, the relative viability (NCI-H358; first compound 0.01581 µM) was 0.332 and the relative viability (NCI-H358; first compound 0.05 µM) was 0.386. It also gave a relative viability (NCI-H358; first compound 0.1581 µM) of 0.254, a relative viability (NCI-H358; first compound 0.5 µM) of 0.367 and a relative viability (NCI-H1355; first compound 0.005 µM) of 0.381. It also gave a relative viability (NCI-H1355; first compound 0.01581 µM) of 0.41, a relative viability (NCI-H1355; first compound 0.05 µM) of 0.441 and a relative viability (NCI-H1355; first compound 0.5 µM) of 0.387. The relative viability (NCI-H2228; first compound 0.005 µM) was 0.402, the relative viability (NCI-H2228; first compound 0.01581 µM) was 0.421 and the relative viability (NCI-H2228; first compound 0.05 µM) was 0.528. It also gave a relative viability (NCI-H2228; first compound 0.1581 µM) of 0.297, a relative viability (NCI-H2228; first compound 0.5 µM) of 0.514 and a relative viability (COR-L23; first compound 0.005 µM) of 0.733. The relative viability (COR-L23; first compound 0.01581 µM) was 0.74, the relative viability (COR-L23; first compound 0.05 µM) was 0.917 and the relative viability (COR-L23; first compound 0.1581 µM) was 0.575. It also gave a relative viability (COR-L23; first compound 0.5 µM) of 0.565, a relative viability (NCI-H1755; first compound 0.005 µM) of 0.365 and a relative viability (NCI-H1755; first compound 0.01581 µM) of 0.402. For the same molecule, the relative viability (NCI-H1755; first compound 0.05 µM) was 0.453, the relative viability (NCI-H1755; first compound 0.1581 µM) was 0.405 and the relative viability (NCI-H1755; first compound 0.5 µM) was 0.396. It also gave a relative viability (SK-MES-1; first compound 0.005 µM) of 0.325, a relative viability (SK-MES-1; first compound 0.01581 µM) of 0.34 and a relative viability (SK-MES-1; first compound 0.05 µM) of 0.416. The relative viability (SK-MES-1; first compound 0.1581 µM) was 0.289, the relative viability (SK-MES-1; first compound 0.5 µM) was 0.363 and the relative viability (NCI-H1793; first compound 0.005 µM) was 0.222. The relative viability (NCI-H1793; first compound 0.01581 µM) was 0.257, the relative viability (NCI-H1793; first compound 0.05 µM) was 0.364 and the relative viability (NCI-H1793; first compound 0.5 µM) was 0.292. For the same molecule, the relative viability (COR-L 105; first compound 0.01581 µM) was 0.405, the relative viability (COR-L 105; first compound 0.05 µM) was 0.431 and the relative viability (COR-L 105; first compound 0.1581 µM) was 0.347. It also gave a relative viability (COR-L 105; first compound 0.5 µM) of 0.317, a relative viability (HOP-62; first compound 0.005 µM) of 0.579 and a relative viability (HOP-62; first compound 0.01581 µM) of 0.744. It also gave a relative viability (HOP-62; first compound 0.05 µM) of 0.708, a relative viability (HOP-62; first compound 0.1581 µM) of 0.368 and a relative viability (HOP-62; first compound 0.5 µM) of 0.649. It also gave a relative viability (NCI-H1395; first compound 0.005 µM) of 0.671, a relative viability (NCI-H1395; first compound 0.01581 µM) of 0.746 and a relative viability (NCI-H1395; first compound 0.05 µM) of 0.769. The relative viability (NCI-H1395; first compound 0.1581 µM) was 0.627, the relative viability (NCI-H1395; first compound 0.5 µM) was 0.678 and the relative viability (NCI-H2170; first compound 0.005 µM) was 0.312. The relative viability (NCI-H2170; first compound 0.01581 µM) was 0.344, the relative viability (NCI-H2170; first compound 0.05 µM) was 0.404 and the relative viability (NCI-H2170; first compound 0.5 µM) was 0.335. It also gave a relative viability (NCI-H1993; first compound 0.005 µM) of 0.845, a relative viability (NCI-H1993; first compound 0.01581 µM) of 0.782 and a relative viability (NCI-H1993; first compound 0.05 µM) of 0.875. It also gave a relative viability (NCI-H1993; first compound 0.1581 µM) of 0.709, a relative viability (NCI-H1993; first compound 0.5 µM) of 0.737 and a relative viability (UMC-11; first compound 0.005 µM) of 0.793. For the same molecule, the relative viability (UMC-11; first compound 0.01581 µM) was 0.725, the relative viability (UMC-11; first compound 0.05 µM) was 0.712 and the relative viability (UMC-11; first compound 0.5 µM) was 0.653. For the same molecule, the relative viability (NCI-H1734; first compound 0.005 µM) was 0.45, the relative viability (NCI-H1734; first compound 0.01581 µM) was 0.443 and the relative viability (NCI-H1734; first compound 0.05 µM) was 0.456. It also gave a relative viability (NCI-H1734; first compound 0.1581 µM) of 0.359, a relative viability (NCI-H1734; first compound 0.5 µM) of 0.442 and a relative viability (NCI-H647; first compound 0.005 µM) of 0.419. The relative viability (NCI-H647; first compound 0.01581 µM) was 0.438, the relative viability (NCI-H647; first compound 0.05 µM) was 0.402 and the relative viability (NCI-H647; first compound 0.1581 µM) was 0.296. For the same molecule, the relative viability (NCI-H647; first compound 0.5 µM) was 0.227, the relative viability (NCI-H1792; first compound 0.005 µM) was 0.248 and the relative viability (NCI-H1792; first compound 0.01581 µM) was 0.27. The relative viability (NCI-H1792; first compound 0.05 µM) was 0.289, the relative viability (NCI-H1792; first compound 0.1581 µM) was 0.283 and the relative viability (NCI-H1792; first compound 0.5 µM) was 0.274. For the same molecule, the relative viability (NCI-H838; first compound 0.005 µM) was 0.443, the relative viability (NCI-H838; first compound 0.01581 µM) was 0.498 and the relative viability (NCI-H838; first compound 0.05 µM) was 0.453. For the same molecule, the relative viability (NCI-H838; first compound 0.5 µM) was 0.501, the relative viability (HCC-15; first compound 0.005 µM) was 0.631 and the relative viability (HCC-15; first compound 0.01581 µM) was 0.641. The relative viability (HCC-15; first compound 0.05 µM) was 0.719, the relative viability (HCC-15; first compound 0.1581 µM) was 0.588 and the relative viability (HCC-15; first compound 0.5 µM) was 0.717. The relative viability (NCI-H2009; first compound 0.005 µM) was 0.811, the relative viability (NCI-H2009; first compound 0.01581 µM) was 0.776 and the relative viability (NCI-H2009; first compound 0.05 µM) was 0.833. It also gave a relative viability (NCI-H2009; first compound 0.1581 µM) of 0.633, a relative viability (NCI-H2009; first compound 0.5 µM) of 0.663 and a relative viability (NCI-H2347; first compound 0.005 µM) of 0.599. The relative viability (NCI-H2347; first compound 0.01581 µM) was 0.53, the relative viability (NCI-H2347; first compound 0.05 µM) was 0.846 and the relative viability (NCI-H2347; first compound 0.1581 µM) was 0.344. The relative viability (NCI-H2347; first compound 0.5 µM) was 0.727, the relative viability (HARA; first compound 0.005 µM) was 0.395 and the relative viability (HARA; first compound 0.01581 µM) was 0.312. The relative viability (HARA; first compound 0.05 µM) was 0.485, the relative viability (HARA; first compound 0.1581 µM) was 0.309 and the relative viability (HARA; first compound 0.5 µM) was 0.603.
